Assay results from paper PMC5919439, “Isolation and molecular characterization of novel glucarpidases: Enzymes to improve the antibody directed enzyme pro-drug therapy for cancer treatment” (PLoS ONE, 2018).

Target: Ps CPG2 (Pseudomonas sp. RS-16, UniProt P06621)
Assay: decrease in absorbance at […] nm, plate reader, initial rates
Format: biochemical
Details: 0.1 M Tris-HCl pH 7.3, 0.2 mM ZnSO4, 37°C, 0.03-0.42 mM MTX; apparent Km

Ps CPG2, sequence (P06621 23-415): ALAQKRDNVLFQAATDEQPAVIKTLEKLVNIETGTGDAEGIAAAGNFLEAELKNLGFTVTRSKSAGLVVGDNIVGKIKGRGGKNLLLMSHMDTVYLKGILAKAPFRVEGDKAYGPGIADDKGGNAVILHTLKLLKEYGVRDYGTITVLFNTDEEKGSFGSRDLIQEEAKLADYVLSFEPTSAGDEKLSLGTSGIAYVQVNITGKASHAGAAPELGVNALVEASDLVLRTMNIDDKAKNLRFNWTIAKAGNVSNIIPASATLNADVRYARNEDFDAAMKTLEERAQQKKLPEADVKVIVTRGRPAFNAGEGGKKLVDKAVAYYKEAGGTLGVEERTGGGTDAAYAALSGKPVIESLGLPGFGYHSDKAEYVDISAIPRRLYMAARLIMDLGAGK

Km: 172 µM
SMILES: CN(Cc1cnc2nc(N)nc(N)c2n1)c1ccc(C(=O)N[C@@H](CCC(=O)O)C(=O)O)cc1 [methotrexate]
